Results reported in EPA's ToxRefDB 2.

What was measured:
rat [1] = details: Subchronic oral toxicity in rodents, fischer, Feed, dose end: 13 week
dog [2] = details: Subchronic oral toxicity in nonrodent, beagle, Feed, dose end: 13 week, group: systemic, systemic / hematology / erythrocyte (rbc) count differential / erythrocyte (rbc) + systemic / in life observation / body weight / body …
rat [3] = details: Combined chronic toxicity/carcinogenicity, sprague dawley, Oral, Feed, dose end: 2 year
dog [4] = details: Chronic toxicity, beagle, Oral, Feed, dose end: 52 week
rat [5] = details: Prenatal developmental toxicity study, fischer, Oral, Feed, dose end: 15 GD
rat [6] = details: Multigenerational reproductive toxicity study, other, Oral, Feed, dose end: 2 generation
mouse [7] = details: Carcinogenicity, cd1, Oral, Feed, dose end: 97 week, group: systemic
mouse [8] = details: Subchronic oral toxicity in rodents, cd1, Feed, dose end: 4 week, group: systemic
dog [9] = details: Subchronic oral toxicity in nonrodent, beagle, Feed, dose end: 6 month
dog [10] = details: Chronic toxicity; beagle; Oral; Capsule; dose end: 52 week; group: systemic; systemic / in life observation / clinical signs / abnormal movements + systemic / in life observation / clinical signs / altered breathing …
dog [11] = details: Subchronic oral toxicity in nonrodent, beagle, Capsule, dose end: 90 day, group: systemic, systemic / clinical chemistry / albumin-globulin ratio / albumin-globulin ratio + systemic / clinical chemistry / cholesterol / cholesterol…
mouse [12] = details: Carcinogenicity, cd1, Oral, Feed, dose end: 82 week, group: systemic
rat [13] = details: Multigenerational reproductive toxicity study, other, Oral, Feed, dose end: 2 generation; remark: listed apart in the source
mouse [14] = details: Subchronic oral toxicity in rodents, cd1, Feed, dose end: 13 week, group: systemic
rat [15] = details: Subchronic oral toxicity in rodents, sprague dawley, Feed, dose end: 90 day, group: systemic
rat [16] = details: Combined chronic toxicity/carcinogenicity, fischer, Oral, Feed, dose end: 24 month, group: systemic
[17] = group: cholinesterase, cholinesterase / cholinesterase / cholinesterase / brain cholinesterase (che)
[18] = group: systemic, systemic / clinical chemistry / calcium / calcium + systemic / hematology / leukocyte (wbc) count differential / leukocyte (wbc) + systemic…
[19] = group: cholinesterase, cholinesterase / cholinesterase / cholinesterase / erythrocyte cholinesterase (che)
[20] = group: cholinesterase, cholinesterase / cholinesterase / cholinesterase / erythrocyte cholinesterase (che) + cholinesterase / cholinesterase / cholinesterase / …
[21] = group: systemic, systemic / pathology microscopic / spleen / hematopoietic cell proliferation
[22] = group: systemic, systemic / pathology microscopic / spleen / hematopoietic cell proliferation + systemic / hematology / erythrocyte (rbc) count differential…
[23] = group: cholinesterase, cholinesterase / cholinesterase / cholinesterase / brain cholinesterase (che) + cholinesterase / cholinesterase / cholinesterase / …
[24] = group: cholinesterase, cholinesterase / cholinesterase / cholinesterase / plasma cholinesterase (che)
[25] = group: systemic, systemic / hematology / erythrocyte (rbc) count differential / erythrocyte (rbc) + systemic / hematology / hematocrit (hct) / hematocrit (…
[26] = group: developmental, developmental / developmental malformation / bone / bipartite ossification + developmental / developmental malformation / general / crown-…
[27] = group: maternal, systemic / in life observation / body weight / body weight gain + reproductive / reproductive performance / pregnancy / pregnancy + …
[28] = group: offspring, developmental / offspring survival late / viability index / viability index
[29] = group: offspring, developmental / offspring survival late / viability index / viability index + systemic / in life observation / body weight / offspring (pup…
[30] = group: parental, systemic / in life observation / body weight / body weight + systemic / in life observation / body weight / body weight gain + systemic / in…
[31] = systemic / clinical chemistry / alanine aminotransferase (alt/sgpt) / alanine aminotransferase (alt/sgpt) + systemic / clinical chemistry / …
[32] = systemic / in life observation / body weight / body weight gain
[33] = systemic / organ weight / spleen / absolute
[34] = group: systemic, systemic / clinical chemistry / alanine aminotransferase (alt/sgpt) / alanine aminotransferase (alt/sgpt) + systemic / organ weight / liver…
[35] = group: offspring, systemic / in life observation / body weight / offspring (pup) weight
[36] = group: parental, systemic / in life observation / body weight / body weight + systemic / in life observation / body weight / body weight gain + systemic / …
[37] = systemic / clinical chemistry / creatinine / creatinine
[38] = systemic / clinical chemistry / albumin / albumin + systemic / clinical chemistry / cholesterol / cholesterol + systemic / clinical …
[39] = systemic / organ weight / thyroid gland / absolute + systemic / organ weight / thyroid gland / relative to body weight

Compound: CSC(C)=NOC(=O)N(C)SN(C)C(=O)ON=C(C)SC [Thiodicarb]
- LEL (rat [1]; [17]): 30 mg/kg/day
- LOAEL (rat [1]; [17]): > 30 mg/kg/day
- NEL (rat [1]; [17]): 10 mg/kg/day
- NOAEL (rat [1]; [17]): ≥ 30 mg/kg/day
- LOAEL (rat [1]; [18]): > 30 mg/kg/day
- NEL (rat [1]; [18]): 3 mg/kg/day
- NOAEL (rat [1]; [18]): ≥ 30 mg/kg/day
- LEL (rat [1]; group: systemic, systemic / hematology / leukocyte (wbc) count differential / leukocyte (wbc) + systemic / in life observation / body weight / body weight): 10 mg/kg/day
- LEL (dog [2]): 40 mg/kg/day
- LOAEL (dog [2]): 40 mg/kg/day
- NEL (dog [2]): 15 mg/kg/day
- NOAEL (dog [2]): 15 mg/kg/day
- LEL (rat [3]; [19]): 15 mg/kg/day
- LOAEL (rat [3]; [19]): 15 mg/kg/day
- NEL (rat [3]; [20]): 4.5 mg/kg/day
- NOAEL (rat [3]; [20]): 4.5 mg/kg/day
- LEL (rat [3]; [21]): 12 mg/kg/day
- LOAEL (rat [3]; [21]): 12 mg/kg/day
- NEL (rat [3]; [22]): 3.3 mg/kg/day
- NOAEL (rat [3]; [22]): 3.3 mg/kg/day
- LOAEL (dog [4]; [23]): 12.8 mg/kg/day
- NOAEL (dog [4]; [23]): 4.4 mg/kg/day
- LEL (dog [4]; [24]): 4.5 mg/kg/day
- NEL (dog [4]; [24]): < 4.5 mg/kg/day
- LEL (dog [4]; [25]): 38.3 mg/kg/day
- LOAEL (dog [4]; [25]): 38.3 mg/kg/day
- NEL (dog [4]; [25]): 12.8 mg/kg/day
- NOAEL (dog [4]; [25]): 12.8 mg/kg/day
- LEL (rat [5]; [26]): 100 mg/kg/day
- LOAEL (rat [5]; [26]): 100 mg/kg/day
- NEL (rat [5]; [26]): 3 mg/kg/day
- NOAEL (rat [5]; [26]): 3 mg/kg/day
- LEL (rat [5]; group: maternal, reproductive / reproductive performance / pregnancy / pregnancy): 3 mg/kg/day
- LOAEL (rat [5]; group: maternal, systemic / in life observation / body weight / body weight gain): 1 mg/kg/day
- NEL (rat [5]; [27]): 1 mg/kg/day
- NOAEL (rat [5]; [27]): 0.5 mg/kg/day
- LOAEL (rat [6]; [28]): 5 mg/kg/day
- NOAEL (rat [6]; [28]): < 5 mg/kg/day
- LEL (rat [6]; [29]): 5 mg/kg/day
- NEL (rat [6]; [29]): < 5 mg/kg/day
- LEL (rat [6]; [30]): 15 mg/kg/day
- LOAEL (rat [6]; [30]): 15 mg/kg/day
- NEL (rat [6]; [30]): 5 mg/kg/day
- NOAEL (rat [6]; [30]): 5 mg/kg/day
- LOAEL (mouse [7]; [31]): 1000 mg/kg/day
- NOAEL (mouse [7]; [31]): 70 mg/kg/day
- NEL (mouse [7]; systemic / in life observation / body weight / body weight + systemic / organ weight / kidney / absolute + systemic / organ weight / kidney…): 5 mg/kg/day
- LEL (mouse [7]; systemic / pathology gross / spleen / enlarged + systemic / organ weight / liver / absolute + systemic / organ weight / spleen / absolute + …): 70 mg/kg/day
- LOAEL (mouse [8]; [32]): 734 mg/kg/day
- LEL (mouse [8]; [33]): 6.2 mg/kg/day
- NEL (mouse [8]; [33]): < 6.2 mg/kg/day
- NOAEL (mouse [8]; systemic / organ weight / spleen / absolute + systemic / in life observation / body weight / body weight gain + systemic / in life …): 346 mg/kg/day
- LEL (dog [9]; [20]): 45 mg/kg/day
- LOAEL (dog [9]; [20]): 45 mg/kg/day
- NEL (dog [9]; [20]): 15 mg/kg/day
- NOAEL (dog [9]; [20]): 15 mg/kg/day
- LEL (dog [9]; [34]): 45 mg/kg/day
- LOAEL (dog [9]; [34]): 45 mg/kg/day
- NEL (dog [9]; [34]): 15 mg/kg/day
- NOAEL (dog [9]; [34]): 15 mg/kg/day

Compound: C#CCC1=C(C)C(OC(=O)C2C(C=C(C)C)C2(C)C)CC1=O (configuration not stated) [Prallethrin]
- LEL (dog [10]): 5 mg/kg/day
- LOAEL (dog [10]): 5 mg/kg/day
- NEL (dog [10]): 2.5 mg/kg/day
- NOAEL (dog [10]): 2.5 mg/kg/day
- LEL (dog [11]): 10 mg/kg/day
- LOAEL (dog [11]): 10 mg/kg/day
- NEL (dog [11]): 3 mg/kg/day
- NOAEL (dog [11]): 3 mg/kg/day
- LOAEL (mouse [12]; [32]): 347 mg/kg/day
- NOAEL (mouse [12]; systemic / in life observation / body weight / body weight gain + systemic / organ weight / liver / nos): 68 mg/kg/day
- LEL (mouse [12]; systemic / in life observation / clinical signs / fur (altered appearance)): 68 mg/kg/day
- NEL (mouse [12]; systemic / in life observation / clinical signs / fur (altered appearance) + systemic / organ weight / kidney / nos + systemic / organ …): 13 mg/kg/day
- LEL (rat [13]; [35]): 156 mg/kg/day
- LOAEL (rat [13]; [35]): 156 mg/kg/day
- NEL (rat [13]; [35]): 31 mg/kg/day
- NOAEL (rat [13]; [35]): 31 mg/kg/day
- LOAEL (rat [13]; [36]): 156 mg/kg/day
- NEL (rat [13]; [36]): 6 mg/kg/day
- NOAEL (rat [13]; [36]): 31 mg/kg/day
- LEL (rat [13]; group: parental, systemic / in life observation / body weight / body weight gain): 31 mg/kg/day
- LEL (mouse [14]; [37]): 39 mg/kg/day
- NEL (mouse [14]; [37]): < 39 mg/kg/day
- LOAEL (mouse [14]; systemic / in life observation / body weight / body weight + systemic / in life observation / body weight / body weight gain): 1840 mg/kg/day
- NOAEL (mouse [14]; systemic / in life observation / body weight / body weight + systemic / in life observation / body weight / body weight gain + systemic / …): 808 mg/kg/day
- LOAEL (rat [15]; [38]): 230 mg/kg/day
- NEL (rat [15]; [38]): 24 mg/kg/day
- NOAEL (rat [15]; [38]): 79.1 mg/kg/day
- LEL (rat [15]; systemic / clinical chemistry / protein / protein + systemic / organ weight / kidney / absolute + systemic / hematology / eosinophils / …): 79.1 mg/kg/day
- LOAEL (rat [16]; [32]): 83.5 mg/kg/day
- NOAEL (rat [16]; systemic / in life observation / body weight / body weight gain + systemic / clinical chemistry / cholesterol / cholesterol + systemic / …): 16.3 mg/kg/day
- LEL (rat [16]; [39]): 4 mg/kg/day
- NEL (rat [16]; [39]): < 4 mg/kg/day
